One series concerns the target T1, IGF1R tyrosine kinase (Homo sapiens, UniProt P08069).
T1 construct: purified recombinant, 6×His- or GST-tagged kinase domain fragments of the corresponding RTKs expressed in baculovirus system; host or cells: baculovirus system
Description: IGF1R tyrosine kinase assay (Kinase-Glo ATP depletion or PT66/PT100 AlphaScreen). The class given is biochemical. The conditions noted are these: FIG. 12. How it is done:
To determine inhibition of several tyrosine kinases, such as IGF1R, InsR, Alk, TrkA and Jak2, kinase assays are conducted using either Kinase-Glo (Promega) or AlphaScreen (PerkinElmer) kinase assay platforms. The Kinase-Glo Luminescent Kinase Assay is a homogeneous method for measuring kinase activity by determining the amount of ATP remaining after a kinase reaction. The luminescent signal is proportional to the amount of ATP and inversely proportional to the amount of kinase activity. Tyrosine kinase PT66 AlphaScreen Assay is a high-sensitivity homogeneous, anti-phosphotyrosine antibody-mediated luminescent proximity method measuring incorporation of phosphate in synthetic poly(Glu-Tyr) substrate. The kinase preparations used consist of purified recombinant, 6×His- or GST-tagged kinase domain fragments of the corresponding RTKs expressed in baculovirus system.
The IGF1R tyrosine kinase is assayed in Kinase-Glo ATP depletion assay using the synthetic polymer poly(Glu-Tyr, 4:1) (Sigma Chemicals) as a phosphoacceptor substrate. Each reaction mixture consists of a total volume of 10 μl and contains 40 ng of the enzyme, 5 μg of poly(Glu-Tyr), 10 μM of ATP and variable concentrations of test compounds. The mixtures also contain 50 mM Tris-HCl, pH 7.5; 5 mM MgCl2; 5 mM MnCl2; 2 mM DTT and 0.01% Tween 20. The reaction mixtures are incubated at 37° C. for 60 minutes and residual concentration of ATP in the mixture is determined by adding luciferase-containing Kinase-Glo (Promega) development reagent and counting luminescence levels using Fusion Universal Microplate Analyzer (PerkinElmer). Tested compounds are dissolved in dimethyl sulfoxide to a stock concentration of 10 mM and are typically evaluated in the assay at eight concentrations in 1 nM to 20 μM range, each in quadruplicate. […] IC50 values are derived by non-linear regression analysis using Prism 3.0 software (Graphpad Software). […]

A further series concerns normal cell line HEK293. As to the kind of experiment: Myeloma-selective cytotoxicity (FIG. 11), HEK293. The class given is cell-based, human. The source says: (§1) All the above were active in the multiple myeloma cell line H929.
Series [1] deals with human myeloma cell lines. As to the kind of experiment: Effect on cell cycle, PI staining. Format: cell-based. The conditions noted are these: sensitive cell lines; 24 hours; 0.6 μM and 1.8 μM. How it is done: FIG. 6 depicts the effect of compound (2a) (i.e., CRL 103142) and compound (2b) (i.e., CRL 130323) on cell cycle. 4 human myeloma cell lines (3 sensitive and 1 resistant) were incubated for 24 hrs with indicated concentrations of compound (2a) and compound (2b) and effect on cell cycle was assessed by PI staining. Results are reported as percentage of cells in G0-G1 or S phase.
4 human myeloma cell lines (3 sensitive and 1 resistant) were incubated for 24 hours with the compounds of the invention, including compounds (2a) and (2b), with a concentration of 0.6 μM and 1.8 μM and effect on cell cycle was assessed by PI staining. Results are reported as percentage of cells in G0-G1 or S phase.

The subject of series [2] is human myeloma cell lines. Description: Effect on apoptosis, PI/annexin V staining. Format: cell-based. Conditions: sensitive cell lines; 48 or 72 hours; 0.6 μM and 1.8 μM. How it is done: FIG. 7 depicts the effect of compound (2a) (i.e., CRL 103142) and compound (2b) (i.e., CRL 130323) on apoptosis. 4 human myeloma cell lines (3 sensitive and 1 resistant) were incubated for 48 or 72 hrs with indicated concentrations of compound (2a) and compound (2b) and effect on apoptosis was assessed by PI/annexin V staining. Results are reported as percentage of viable (PI−/annexin V−) cells.
4 human myeloma cell lines (3 sensitive and 1 resistant) were incubated for 48 or 72 hours with the compounds of the invention, including compounds (2a) and (2b), having a concentration of 0.6 μM and 1.8 μM and effect on apoptosis was assessed by PI/annexin V staining. Results are reported as percentage of viable (PI−/annexin V−) cells.

Series [3] relates to multiple myeloma cell line H929. As to the kind of experiment: Myeloma-selective cytotoxicity (FIG. 11), H929. The class given is cell-based, human.
Description: as §1

A further series relates to normal cell line CHO. As to the kind of experiment: Myeloma-selective cytotoxicity (FIG. 11), CHO. Format: cell-based, chinese hamster.
Description: as §1

In series [4] the test system is myeloma cells of primary patient sample. Description: Induction of apoptosis in primary patient sample. The class given is cell-based, human. Conditions: for apoptosis of myeloma cells: primary patient sample. The source says:
FIG. 8 depicts the apoptosis of myeloma cells induced by the compounds of the invention. Primary patient sample exposed to DMSO or compound (2a) (i.e., CRL 103142) or compound (2b) (i.e., CRL 130323) for 24 hr and indicated concentrations. LUQ-% viable myeloma cells and LLQ-% viable non-myeloma cells.
FIG. 9 depicts the apoptosis of myeloma cells induced by the compounds of the invention. Primary patient sample exposed to DMSO or compound (2a) (i.e., CRL 103142) or compound (2b) (i.e., CRL 130323) for 48 hr and indicated concentrations. LUQ-% viable myeloma cells and LLQ-% viable non-myeloma cells.
FIG. 10 depicts the apoptosis of myeloma cells induced by the compounds of the invention. Primary patient sample exposed to DMSO or compound (2a) (i.e., CRL 103142) or compound (2b) (i.e., CRL 130323) for 96 hr and indicated concentrations. LUQ-% viable myeloma cells and LLQ-% viable non-myeloma cells.
Primary patient sample exposed to DMSO or the compounds of the invention for 24 hours, 48 hours, and 96 hours and with a concentration of 0.4 μM, 0.6 μM, 1.2 μM, and 1.8 μM. LUQ-% viable myeloma cells and LLQ-% viable non-myeloma cells. The compounds of the invention included significant apoptosis of myeloma cells (FIGS. 8-10).

The nature of series [5]: Toxicity in animals, body weight (FIG. 13). Format: in vivo. The conditions noted are these: highest doses tested.

T1 sequence (P08069 999-1274 limits assumed): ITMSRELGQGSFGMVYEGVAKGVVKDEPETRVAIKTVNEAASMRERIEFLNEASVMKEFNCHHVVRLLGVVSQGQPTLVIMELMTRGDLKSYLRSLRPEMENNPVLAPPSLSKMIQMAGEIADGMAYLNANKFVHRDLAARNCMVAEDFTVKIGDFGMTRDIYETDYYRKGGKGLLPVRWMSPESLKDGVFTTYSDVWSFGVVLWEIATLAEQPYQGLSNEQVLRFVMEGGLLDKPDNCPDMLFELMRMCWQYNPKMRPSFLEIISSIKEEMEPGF

`Cc1ccc(OC[C@H](O)CNc2cc[nH]c(=O)c2-c2nc3cc4c(cc3[nH]2)CN(C2CCN(C)CC2)C4=O)c(C)c1` [2a]: the “IGF-1R potency in vitro” value on IGF1R tyrosine kinase was “same potency range as known preclinical compounds”. Also, the “toxicity in normal cell line HEK293” value with normal cell line HEK293 was “demonstrated toxicity”. Moreover, in the series with human myeloma cell lines [1], the “effect on cell cycle (percentage of cells in G0-G1 or S phase)” value is “induced significant G1 growth arrest”. For the same compound, in the series on human myeloma cell lines [2], the “effect on apoptosis (percentage of viable PI−/annexin V− cells)” value was “induced significant apoptosis”. Further, the “activity in multiple myeloma cell line H929” value in series [3] is on record as “active”. The “toxicity in normal cell line CHO” value in the series on normal cell line CHO is given as “demonstrated toxicity”. For the same compound, the “apoptosis of myeloma cells” value in series [4] (24 hr), in series [4] (48 hr) and in series [4] (96 hr) was “induced significant apoptosis of myeloma cells” in each case.
On to `Cc1ccc(OC[C@H](O)CNc2cc[nH]c(=O)c2-c2nc3cc4c(cc3[nH]2)CN(C2CCN(CCS(C)(=O)=O)CC2)C4=O)c(C)c1` [2b], for which the “toxicity in animals (body weight)” value in series [5] is “no signs of toxicity”; in series [5] (listed as CRL130323) it was “no observable toxicity”. The figures for the “IGF-1R potency in vitro” value at IGF1R tyrosine kinase and on IGF1R tyrosine kinase (listed as CRL130323) were “same potency range as known preclinical compounds” and “comparable IGF-1R potency”, respectively. The “toxicity in normal cell line HEK293” value in the series with normal cell line HEK293 was “did not demonstrate toxicity”. The “effect on cell cycle (percentage of cells in G0-G1 or S phase)” value in the series with human myeloma cell lines [1] is listed as “induced significant G1 growth arrest”. The “effect on apoptosis (percentage of viable PI−/annexin V− cells)” value in the series with human myeloma cell lines [2] was “induced significant apoptosis”. The “activity in multiple myeloma cell line H929” value in series [3] is listed as “active”. In series [3], the “selectivity towards multiple myeloma lines” value was “highly selective”. Besides, in the series with normal cell line CHO, the “toxicity in normal cell line CHO” value was “did not demonstrate toxicity”. Moreover, the “selectivity, viable myeloma cells versus viable non-myeloma cells” value in series [4] (primary patient sample, 24, 48 and 96 hours) was “more selective”. Also, the “apoptosis of myeloma cells” value in series [4] (24 hr), in series [4] (48 hr) and in series [4] (96 hr) was “induced significant apoptosis of myeloma cells” each time.
